Measurements from paper PMC7249060, “The Antiproliferative Effects of Flavonoid MAO Inhibitors on Prostate Cancer Cells” (Molecules, 2020).

How the values were obtained:
LNCaP cells [1] = assay: Viability screen assay, resazurin, 24 h; type: cell-based, human; settings: 50 μM, 90% viability as margin of cytotoxicity
Method: We examined the cytotoxic effects of all 20 synthesized KKRs on the three human PCa cell lines LNCaP, DU145, and PC3, after a 24 h exposure period. Non-toxic TAX was used for comparison. Briefly, cultured cells were seeded in black transparent bottom 96-well microplates at 50,000 cells/175-µL/well in experimental media (RPMI1640 for LNCaP, EMEM for DU145, and DMEM/F12K for PC3), supplied with 5% FBS and 1% P/S. Wells of media without cells were considered blanks and negative controls. The plates were incubated overnight at 37 °C in 5% CO2 to allow cell attachment. For each compound, a working solution of 8X KKR in sterile […] HEPES in HBSS pH buffer of 7.4 was prepared for a final concentration of 50 μM each. The three attached cell types were treated immediately with the related buffer being added to the control wells. A sterile fluorescence-based solution of the resazurin reagent of 0.5 mg/mL in HBSS was prepared. After 24 h, the cells were exposed to 15% v/v of the sterile resazurin reagent, and the plates were re-incubated for 4.5 h to allow redox reaction. All plates were read under 530/590-nm excitation/emission wavelengths using Bio-Tek Synergy HTX Multi-reader as a microplate fluorescence reader.

LNCaP cells [2] = assay: Antiproliferation screen assay, resazurin, 72 h; type: cell-based, human
LNCaP cells [3] = assay: Antiproliferation screen assay, resazurin, 72 h; type: cell-based, human; settings: 50 μM
Method: In this screen, we examined the growth inhibitory effects of all synthesized KKRs on the three human PCa cell lines LNCaP, DU145, and PC3. The antiproliferative clinical drug TAX of 0.25 μM was used as a positive control. Additionally, different standards of MAO-Is and FLUT were tested for their effect on the LNCaP cells. Briefly, the procedures and materials used were the same as for the viability assay except for the following—cultured cells were seeded at 10,000 cells/175-µL/well related experimental media, and the resazurin solution was added after 72 h of incubation with the compounds of 50 μM each.

LNCaP cells [4] = assay: Antiproliferation dose-response assay for 72 h; type: cell-based; settings: Homo sapiens, mean ± SEM of two experiments, read-out: antiproliferative IC50
Method: For the top effective KKRs, along with TAX, their potency to reduce the affected PCa cell line growth in a dose-dependent manner was determined using the resazurin fluorescence assay. We followed the same protocols and materials used for the antiproliferation screen assays (Section 4.3.2), with the following modifications. The maximum final KKR concentration used was 40 μM. The concentration of 8X of each KKR working solution in 1% HEPES 7.4 was serially diluted in a 3:1 ratio, compound to buffer, respectively. Each data set was collected from ten data points of 3.7–40 μM range. The control had the KKR substituted with buffer. The related IC50 averages were analyzed for the compounds that affected the cell lines the most.

DU145 cells = assay: Scratch migration assay; type: cell-based, human; settings: preliminary data
Method: For in-vitro migration experiments, the PCa metastatic DU145 cell line was used. Cell proliferation and cytotoxicity were monitored for assay validation. The cells (passage # ≤ 10) were grown in fresh media of EMEM 10% FBS, 1% P/S. The cells were seeded in flat-bottom transparent 96-well microplates (100,000 cells/100 μL/well) in EMEM 5% FBS, 1% P/S experimental media. The next day, the confluent cells monolayer was artificially injured by scratching a line across each well, using a 200 μL tip. Immediately, the old media with the detached cells were replaced with 175 μL fresh warm experimental media. Intact cells were then treated with 25 μL of HBSS buffer 7.4 containing tested KKR. In addition to the negative control, KKR11 was tested at gradual concentrations to make finals of 40, 30, 23, 17, and 13 μM. The cells were then incubated for an additional 72 h for gap closure of the control wells.
At the gap closure time point, all cells were subjected to the crystal violet assay that only stains viable cells. Briefly, all media were carefully aspired from cells that were then washed with Ca- and Mg-free PBS. The cells were then fixed with 100 μL 0.25% v/v glutaraldehyde, at 37 °C for 20–30 min incubation time, and dried overnight. The next day, all viable attached cells were stained with a 100 μL crystal violet solution (0.1% in DI-water) for up to 30 min. The solution was then discarded, and the stained cells were kept dry for imaging. Images of the scratched areas were photographed using 10X phase contrast objective lenses of Motic-MXH-100-AE31E-Elite Inverted Microscope.

hMAO-A = target: T1, hMAO-A (Homo sapiens, UniProt P21397); assay: MAO-Glow inhibitory potency (IC50) and relative selectivity; type: biochemical; settings: mean ± SEM, at least two experiments; LDS 40 μM
T1 construct: purchased Sigma-Aldrich Co. (St. Louis, MO, USA)
T1 sequence (P21397 1-527): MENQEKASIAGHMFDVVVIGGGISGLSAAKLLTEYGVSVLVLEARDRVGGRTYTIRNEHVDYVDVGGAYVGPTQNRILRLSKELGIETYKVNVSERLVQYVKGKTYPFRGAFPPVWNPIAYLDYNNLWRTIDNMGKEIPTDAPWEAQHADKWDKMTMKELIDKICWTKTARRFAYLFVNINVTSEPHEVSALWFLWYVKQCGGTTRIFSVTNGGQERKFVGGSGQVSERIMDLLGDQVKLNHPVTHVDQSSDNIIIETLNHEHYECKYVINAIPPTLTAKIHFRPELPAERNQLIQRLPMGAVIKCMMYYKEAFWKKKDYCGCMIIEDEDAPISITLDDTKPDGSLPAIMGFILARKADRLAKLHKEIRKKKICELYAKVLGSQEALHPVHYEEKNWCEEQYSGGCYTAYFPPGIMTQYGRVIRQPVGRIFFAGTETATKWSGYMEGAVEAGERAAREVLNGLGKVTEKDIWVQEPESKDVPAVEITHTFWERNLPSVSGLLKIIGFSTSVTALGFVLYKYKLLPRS
Method: (§1) The inhibitory effects of the synthesized KKRs of hMAO-A and B were tested by measuring the decrease in arbitrary light units (ALU) signal produced by the optimized isozymes using the MAO-Glow™ Assay at 37 °C. In this assay, DMSO stock for each KKR compound was diluted with a reaction buffer of pH 7.4 to make a 4X working solution for a maximum final concentration of 100 μM and ≤1% DMSO. The experiments were run in the absence and presence of 4X the miscellaneous standards of MAO-BIs (DEP, PARG, and SAF) and MAO-AIs (PIRL and CLORG), with similar concentrations. In white opaque 96-well microplates, 12.5 μL of each compound was plated at RT and was followed by 25 μL of 2X cold hMAO-A or hMAO-B, for a final concentration of 0.44 U/mL. A related buffer substituted each isozyme to make the blank wells and substituted each compound to make the negative control wells. Following this, we added 12.5 μL of 4X LDS to make a final substrate concentration of 40- and 4-μM for hMAO-A and hMAO-B, respectively. All screen plates were incubated at 37 °C for 60 min. The plates of 50 μL/well were then taken out from the incubator, and their reactions were stopped by an equal volume of 50 μL of reporter luciferin detection reagent (RLDR). After 30 min, the luminescence signals for all plates were read on a Synergy HTX Multi-reader from Bio-Tek (Winooski, VT, USA).
(§2) The experiments were performed in the presence and absence of the standard PILR. In white opaque 96-well plates, each KKR compound was serially diluted with a reaction buffer of pH 7.4 at the highest possible maximum final concentration, and the least used DMSO (<2%). In blank wells, the related reaction buffer substituted the isozyme. In negative control wells, the reaction buffer substituted each compound concentration. Then, the procedure was carried out as mentioned above (Section 4.2.2), and the reaction was detected on the Bio-Tek Synergy HTX Multi-Reader. The IC50 of each KKR on both isozymes was determined and subsequently the RSA and RSB was calculated.
(§3) Statistical analyses were performed using the GraphPad Prism program (version 6.07 for Windows) from the GraphPad Prism Software Incorporated (San Diego, CA, USA). All data points and parameters were expressed as the mean ± SEM. All parameters were calculated from non-linear and linear regressions with the best R^2 values, no less than 93%. The inhibitory concentration of 50% of isozyme (IC50) of each compound was obtained by the interpolation of a normalized variable slope logarithmic curve. The RSA values of the selected compounds were calculated from their IC50 average means following the equation RSA = hMAO − B IC50/Hmao − A IC50(1)

hMAO-B = target: T2, hMAO-B (Homo sapiens, UniProt P27338); assay: MAO-Glow inhibitory potency (IC50); type: biochemical; settings: mean ± SEM, at least two experiments; LDS 4 μM
T2 construct: purchased Sigma-Aldrich Co. (St. Louis, MO, USA)
T2 sequence (P27338 1-520): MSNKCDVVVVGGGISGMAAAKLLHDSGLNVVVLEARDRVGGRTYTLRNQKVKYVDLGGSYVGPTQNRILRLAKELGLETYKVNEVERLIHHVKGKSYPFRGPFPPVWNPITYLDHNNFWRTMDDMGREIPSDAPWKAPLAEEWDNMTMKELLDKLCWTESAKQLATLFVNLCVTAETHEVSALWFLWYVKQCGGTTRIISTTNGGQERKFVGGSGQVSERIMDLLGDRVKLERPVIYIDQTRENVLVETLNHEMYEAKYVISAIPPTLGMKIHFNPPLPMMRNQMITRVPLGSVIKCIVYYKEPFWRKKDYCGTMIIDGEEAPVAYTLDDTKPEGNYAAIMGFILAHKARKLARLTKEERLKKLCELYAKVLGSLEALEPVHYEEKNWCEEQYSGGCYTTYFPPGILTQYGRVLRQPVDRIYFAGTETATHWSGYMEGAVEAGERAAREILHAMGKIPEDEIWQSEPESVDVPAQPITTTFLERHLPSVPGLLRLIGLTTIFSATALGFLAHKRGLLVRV
Method: as §1, §2, §3

LNCaP cells [5] = assay: cells; type: cell-based, human
Method: The morphological alterations of the LNCaP cells were imaged, and their percentage proliferation rate was measured after five-days of incubation. The method of subculture and treatment were similar to our antiproliferation assay, with slight modifications. Briefly, the cells were seeded in transparent flat-bottom 96-well microplates with 10,000 cells/175 μL/well of […] experimental media. Following overnight incubation, 20 μM concentration level (~2 × IC50) for each of KKR11, 20, 7, 2A, 21, and the standard PIRL were added to the cells for a total volume of 200 μL/well and re-incubated for five-days. On the day of imaging, 20X phase-contrast images of lid-covered treated and control cells were captured using an inverted microscope. Resazurin was then added for viability detection, and the imaged cells in the wells were read after 4.5 h on the Bio-Tek Synergy HTX Multi-reader.

COc1cc(-c2cc(=O)c3ccccc3o2)cc(OC)c1OC [KKR22, 2-(3,4,5-trimethoxyphenyl)-4H-chromen-4-one]
cytotoxicity / cell viability (LNCaP cells [1]): affected the LNCaP cells

CC(C)C(=O)Nc1ccc([N+](=O)[O-])c(C(F)(F)F)c1 [FLUT, flutamide]
antiproliferative effect of clinical standards (LNCaP cells [2]; 10 μM): none of the standards showed a significant antiproliferative effect

O=C(/C=C/c1ccccc1)c1cc(Cl)c(Cl)cc1O [KKR23, (E)-1-(4,5-dichloro-2-hydroxyphenyl)-3-phenylprop-2-en-1-one]
antiproliferative effect in screen (LNCaP cells [3]): top five KKRs that kept standing out with antiproliferative effects

CC(=O)O[C@H]1C(=O)[C@@]2(C)[C@H]([C@H](OC(=O)c3ccccc3)[C@]3(O)C[C@H](OC(=O)[C@H](O)[C@@H](NC(=O)c4ccccc4)c4ccccc4)C(C)=C1C3(C)C)[C@]1(OC(C)=O)CO[C@@H]1C[C@@H]2O [TAX, paclitaxel, reference compound]
IC50 (LNCaP cells [4]): 210 nM | effect on cell migration (DU145 cells): delayed cell migration | antiproliferative effect of clinical standards (LNCaP cells [2]; 0.5 μM): highly effective

Cc1ccc2c(c1)c1c3n2CCNC3CCC1 (stereo not drawn) [PIRL, pirlindole, reference compound]
IC50 (hMAO-A): 12 ± 2 nM | IC50 (hMAO-B): > 800000 nM | IC50 (LNCaP cells [4]): > 40000 nM | effect on LNCaP proliferation and cell morphology (LNCaP cells [5]; 20 μM, five days, phase contrast): neither significant effects on LNCaP proliferation nor apparent changes in cell morphology | viability at 20 µM (LNCaP cells [5]; Homo sapiens, LNCaP, 120 h, read-out: percentage of treated group compared to the viable control): 90% | antiproliferative effect of clinical standards (LNCaP cells [2]; 10 μM): none of the standards showed a significant antiproliferative effect

COc1cc(OC)c2c(=O)c(O)c(/C=C/c3ccccc3)oc2c1 [KKR16, (E)-3-hydroxy-5,7-dimethoxy-2-styryl-4H-chromen-4-one]
cytotoxicity / cell viability (LNCaP cells [1]): affected the LNCaP cells

O=C(/C=C/c1ccc2c(c1)OCO2)c1cc(Cl)cc(Cl)c1O [KKR18, (E)-3-(benzo[d][1,3]dioxol-5-yl)-1-(3,5-dichloro-2-hydroxyphenyl)prop-2-en-1-one]
antiproliferative effect in screen (LNCaP cells [3]): top five KKRs that kept standing out with antiproliferative effects

C#CCN(C)[C@H](C)Cc1ccccc1.Cl [DEP, (R)-(−)-deprenyl HCl]
antiproliferative effect of clinical standards (LNCaP cells [2]; 10 μM): none of the standards showed a significant antiproliferative effect
